≈ marks a conversion by molar mass, not a printed value. Where “and” joins values, the source holds several entries; their conditions need not be identical. Identical values can stand only once. Like-named read-outs stand apart in the source and are kept apart here. *1 amine or outer side, *2 acyl side, *3 side chain or, on linkers, in order; H or OH if unused. Where a SMILES comes first, the peptide text is derived from it. [ ]: non-standard residue; d: D form. Phe(ol) = N[CH](CO)Cc1ccccc1; CO = O=C([*:1])[*:2]
Experiments:
[1] = in vitro; settings: dog
[2] = tested on: influenza virus A/wuhan/359/95 (H3N2); assay: organism not typed; type: cell-based
[3] = in vitro; settings: human
[4] = tested on: coronavirus HCoV-229E; assay: CPE inhibition assay against HCoV-229E in Huh7.5 cells; type: cell-based
[5] = tested on: Madin-Darby canine kidney cells (MDCK)
[6] = tested on: influenza virus A/Fort Monmouth/1/47 (H1N1); assay: organism not typed; type: cell-based; settings: MDCK, read-out: A/Fort Monmouth/1/47(H1N1) IC50
[7] = tested on: coronavirus HCoV-OC43; assay: qRT-PCR of HCoV-OC43 N protein mRNA in C3A cells; type: cell-based; settings: 24 hours, corrected for GAPDH, read-out: IC50 for inhibitory activity of coronavirus HCoV-OC43
[8] = tested on: Huh7.5 cells; assay: 50% toxicity concentration (TC50) by CPE assay in Huh7.5 cells; settings: read-out: TC50, Table 10
[9] = MDCK, read-out: A/Wuhan/359/1995 (H3N2) IC50
[10] = Human coronavirus 229E, Huh7.5, read-out: HCoV-229E IC50

## CC(C)C(NC(=O)C(CCCNC(=N)N)NC(=O)NC(Cc1ccccc1)C(=O)O)C(=O)NC(CO)Cc1ccccc1 (stereo not drawn) [Omicsynin A3, Chymostatinol A] ({Phe-CO}-Arg-Val-[Phe(ol)]; configuration not given here)
[1]
  CC50: > 336 µM
[2]; [9]
  IC50: 87.9 ± 23.7 µM
[3]
  CC50: > 168 µM
[4]; [10]
  IC50: 57.4 ± 15.6 µM

## CCOC(=O)C1=C[C@@H](OC(CC)CC)[C@H](NC(C)=O)[C@@H](N)C1 [Oseltamivir]
[2]; MDCK, Table 1; positive drug; read-out: A/wuhan/359/95(H3N2) IC50
  IC50: 1.63 µg/mL
[2]; MDCK, Table 3; positive drug; read-out: A/Wuhan/359/1995 (H3N2) IC50
  IC50: 2.01 µg/mL
[2]; MDCK, Table 4; positive drug; read-out: A/Wuhan/359/1995 (H3N2) IC50
  IC50: 1.77 µg/mL
[2]; MDCK; Table 2; positive drugs; read-out: A/wuhan/359/95(H3N2) IC50
  IC50: 1.63 µg/mL
[2]; MDCK; read-out: A/Wuhan/359/1995 (H3N2) IC50
  IC50: 2.47 µg/mL
[5]; Table 1, positive drug
  TC50: 1260 µg/mL (≈ 4030 µM)
[5]; Table 2, positive drugs
  TC50: 1260 µg/mL (≈ 4030 µM)
[5]; Table 3, positive drug
  TC50: 577.4 µg/mL (≈ 1850 µM)
[5]; Table 4, positive drug
  TC50: >1000 µg/mL
[5]; Table 6, 50E-C18 components and positive drugs
  TC50: 577.35 µg/mL (≈ 1850 µM)
[6]; Table 2, positive drugs
  IC50: 2.01 µg/mL (≈ 6.43 µM)

## CCOC(=O)C1=C[C@@H](OC(CC)CC)[C@H](NC(C)=O)[C@@H](N)C1 [Oseltamivir Phosphate]
[2]; MDCK, Table 5; HP20 eluates and positive drugs; read-out: A/Wuhan/359/1995 (H3N2) IC50
  IC50: 2.01 µg/mL
[5]; Table 5, HP20 eluates and positive drugs
  TC50: 577.35 µg/mL

## CC(C)C[C@H](NC(=O)[C@@H](NC(=O)N[C@@H](Cc1ccccc1)C(=O)O)[C@@H]1CCN=C(N)N1)C(=O)N[C@H](C=O)Cc1ccccc1 [chymostatin, Chymostatin]
[1]
  CC50: > 329 µM
[2]; [9]
  IC50: 329 µM
[3]
  CC50: > 165 µM
[4]; [10]
  IC50: 23.7 ± 5.66 µM

## CC(C)[C@H](NC(=O)[C@H](CCCNC(=N)N)NC(=O)N[C@@H](Cc1ccccc1)C(=O)O)C(=O)N[C@H](C=O)CCCNC(=N)N [Omicsynin B4, Antipain] ({Phe-CO}-Arg-Val-Arg-aldehyde)
[7]
  IC50: 28.7 µM
[2]; Table 9; CPE method; mean ± SD, three repeats; read-out: A/Wuhan/359/1995 (H3N2) IC50
  IC50: 2.43 ± 0.71 µM
[8]
  CC50: > 165 µM
[5]; read-out: TC50, Table 9, CPE method
  CC50: > 331 µM
[4]; Table 10, Huh7.5 cells, 100 TCID50, read-out: HCoV-229E IC50
  IC50: 0.89 ± 0.22 µM

## CC(C)[C@H](NC(=O)[C@H](CCCNC(=N)N)NC(=O)N[C@@H](Cc1ccccc1)C(=O)O)C(=O)N[C@H](C=O)CCCNC(=N)N [antipain, Antipain] ({Phe-CO}-Arg-Val-Arg-aldehyde)
[1]
  CC50: > 331 µM
[2]; MDCK, Table 9; CPE method; mean ± SD, three repeats; read-out: A/Wuhan/359/1995 (H3N2) IC50
  IC50: 3.16 ± 0.94 µM
[3]
  CC50: > 165 µM
[4]; [10]
  IC50: 1.57 ± 0.46 µM

## NC(=O)c1ncn([C@@H]2O[C@H](CO)[C@@H](O)[C@H]2O)n1 [RBV, ribavirin]
[1]
  CC50: > 819 µM
[2]; [9]
  IC50: 2.47 µg/mL and 13.2 µM
[2]; MDCK, read-out: A/wuhan/359/95(H3N2) IC50
  IC50: 1.63 µg/mL
[3]
  CC50: > 410 µM
[4]; [10]
  IC50: 25.1 ± 6.1 µM
[6]
  IC50: 0.82 µg/mL (≈ 3.36 µM)
